For this data set, the system named is tobacco budworm (Heliothis virescens [Fabricius]). Description: surface-treated diet test against tobacco budworm. In kind it is in vivo. The following applies: 0.25 millimolar candidate insecticide on the surface of the diet, second instar larvae, five-day exposure; for Percent Growth Inhibition: inhibition of insect weight relative to untreated controls; for Percent Mortality: mortality compared to the total number of insects infested. The method, then: Candidate insecticides were evaluated for activity against the tobacco budworm (Heliothis virescens [Fabricius]) in a surface-treated diet test.
In this test one mL of molten (65-70° C.) wheat germ-based artificial diet was pipetted into each well of a four by six (24 well) multi-well plate (ID# 430345-15.5 mm diameter×17.6 mm deep; Corning Costar Corp., One Alewife Center, Cambridge, Mass. 02140). The diet was allowed to cool to ambient temperature before treatment with the candidate insecticide.
For a determination of insecticidal activity, solutions of the candidate insecticides were prepared for testing using a Packard 204DT Multiprobe® Robotic System (Packard Instrument Company, 800 Research Parkway, Meriden, Conn. 06450), in which the robot first diluted a standard 50 millimolar DMSO solution of the candidate insecticide with a 1:1 water/acetone solution (V/V) in a ratio of 1:7 stock solution to water/acetone. The robot subsequently pipetted 40 microliters of the so-prepared solution onto the surface of the diet in each of three wells in the 24 multi-well plate. The process was repeated with solutions of seven other candidate insecticides. Once treated, the contents of the multi-well plate were allowed to dry, leaving […] of candidate insecticide on the surface of the diet, or a concentration of 0.25 millimolar. Appropriate untreated controls containing only DMSO on the diet surface were also included in this test. […]
In each well of the test plate was placed a second instar tobacco budworm larvae, weighing approximately five milligrams. After the larvae were placed in each well, the plate was sealed with clear polyfilm adhesive tape. The tape over each well was perforated to ensure an adequate air supply. The plates were then held in a growth chamber at 25° C. and 60% relative humidity for five days (light 14 hours/day).
After the five-day exposure period insecticidal activity for each rate of application of candidate insecticide was assessed as percent inhibition of insect weight relative to the weight of insects from untreated controls, and percent mortality when compared to the total number of insects infested.
The test compounds of formula I are identified by numbers that correspond to those in Table 1.

Turning to `FC(F)(F)c1ccc(-c2cn(CCOc3c(Cl)cc(OCC=C(Cl)Cl)cc3Cl)nn2)nc1` [Compound 1-18], the “Percent Growth Inhibition” value was 100% and the “Percent Mortality” value came out at 100%.
With `CN(C)c1ccc(-c2cn(CCOc3c(Cl)cc(OCC=C(Cl)Cl)cc3Cl)nn2)cc1` [Compound 1-16], the “Percent Growth Inhibition” value was 91% and the “Percent Mortality” value is 67%.
Taken in the same sequence, the figures for `ClC(Cl)=CCOc1cc(Cl)c(OCCn2cc(-c3ccccc3Cl)nn2)c(Cl)c1` [Compound 1-11] were 100% and 100%.
Taken in the same sequence, the figures for `ClC(Cl)=CCOc1cc(Cl)c(OCCn2nnc(-c3cccc(Cl)c3)n2)c(Cl)c1` [Compound 7-56] were 100% and 100%.
For the compound `FC(F)(F)c1ccc(-c2n[nH]c(CCOc3c(Cl)cc(OCC=C(Cl)Cl)cc3Cl)n2)cc1` [Compound 8-2, 5-(3,3-dichloroprop-2-enyloxy)-1,3-dichloro-2-(2-(3-(4-trifluoromethylphenyl)(1,2,4-triazolyl))ethoxy)benzene], the “Percent Growth Inhibition” value stood at 100% and the “Percent Mortality” value is 100%.
For the compound `C[Si](C)(C)c1cn(CCCOc2c(Cl)cc(OCC=C(Cl)Cl)cc2Cl)nn1` [Compound 1-19], the “Percent Growth Inhibition” value is 100% and the “Percent Mortality” value is recorded as 100%.
Consider `FC(F)(F)c1ccc(-c2cn(CCCOc3c(Cl)cc(OCC=C(Cl)Cl)cc3Cl)nn2)cc1` [Compound 1-9], for which the “Percent Growth Inhibition” value came to 100% and the “Percent Mortality” value came to 100%.
In the case of `Fc1ccc(-c2cn(CCOc3c(Cl)cc(OCC=C(Cl)Cl)cc3Cl)nn2)c(F)c1` [Compound 1-15], the “Percent Growth Inhibition” value is on record as 100% and the “Percent Mortality” value was found to be 100%.
`FC(F)(F)c1cccc(-c2cn(CCOc3c(Cl)cc(OCC=C(Cl)Cl)cc3Cl)nn2)c1` [Compound 1-14]: the “Percent Growth Inhibition” value came out at 100% and the “Percent Mortality” value came out at 100%.
`FC(F)(F)c1cccc(-c2nnn(CCOc3c(Cl)cc(OCC=C(Cl)Cl)cc3Cl)n2)c1` [Compound 7-54, 5-(3,3-dichloroprop-2-enyloxy)-1,3-dichloro-2(-2-(5-(3-trifluoromethylphenyl)(1,2,3,4-tetraazol-2-yl))ethoxy)benzene]: the “Percent Growth Inhibition” value came out at 100% and the “Percent Mortality” value is 100%.
As for `ClC(Cl)=CCOc1cc(Cl)c(OCCn2cc(CC3CCCC3)nn2)c(Cl)c1` [Compound 1-5], the “Percent Growth Inhibition” value came to 100% and the “Percent Mortality” value turned out to be 100%.
Turning to `FC(F)(F)c1ccc(OCc2cn(CCOc3c(Cl)cc(OCC=C(Cl)Cl)cc3Cl)nn2)cc1` [Compound 1-69], the “Percent Growth Inhibition” value turned out to be 71% and the “Percent Mortality” value came to 17%.
On to `CC(C)(C)c1cn(CCOc2c(Cl)cc(OCC=C(Cl)Cl)cc2Cl)nn1` [Compound 1-7], for which the “Percent Growth Inhibition” value came out at 100% and the “Percent Mortality” value is reported as 100%.
Regarding `CC(C)Cc1cn(CCOc2c(Cl)cc(OCC=C(Cl)Cl)cc2Cl)nn1` [Compound 1-6], the “Percent Growth Inhibition” value was 49% and the “Percent Mortality” value turned out to be 0%.
The corresponding values for `ClC(Cl)=CCOc1cc(Cl)c(OCCn2cc(-c3ccc(Cl)c(Cl)c3)nn2)c(Cl)c1` [Compound 1-3] are 100% and 100%.
Turning to `ClC(Cl)=CCOc1cc(Cl)c(OCCn2cc(-c3cccc(Cl)c3)nn2)c(Cl)c1` [Compound 1-12], the “Percent Growth Inhibition” value is 100% and the “Percent Mortality” value is 100%.
Regarding `FC(F)(F)c1ccc(-c2cn(CCOc3c(Cl)cc(OCC=C(Cl)Cl)cc3Cl)nn2)cc1` [Compound 1-1], the “Percent Growth Inhibition” value is 100% and the “Percent Mortality” value stood at 100%.
On to `ClC(Cl)=CCOc1cc(Cl)c(OCCn2cc(-c3ccc(Oc4ccccc4)cc3)nn2)c(Cl)c1` [Compound 1-17], for which the “Percent Growth Inhibition” value stood at 100% and the “Percent Mortality” value amounted to 67%.
Taken in the same sequence, the figures for “5-(3,3-dichloroprop-2-enyloxy)-1,3-dichloro-2-(2-(4-(4-chlorophenyl)-1,2,3-triazolyl)ethoxy)benzene [Compound 1-2]” were 100% and 100%.
In the case of `ClC(Cl)=CCOc1cc(Cl)c(OCCn2nnc(-c3ccccc3)n2)c(Cl)c1` [Compound 7-1], the “Percent Growth Inhibition” value is listed as 100% and the “Percent Mortality” value stood at 100%.
Regarding `FC(F)(F)c1cccc(-c2noc(COc3c(Cl)cc(OCC=C(Cl)Cl)cc3Cl)n2)c1` [Compound 14-54, 5-(3,3-dichloroprop-2-enyloxy)-1,3-dichloro-2((3-(3-trifluoromethylphenyl)(1,2,4-oxadiazol-5-yl))methoxy)benzene], the “Percent Growth Inhibition” value is 100% and the “Percent Mortality” value worked out at 100%.
For `ClC(Cl)=CCOc1cc(Cl)c(OCCn2cnc(-c3ccccc3)c2)c(Cl)c1` [Compound 2-1], the “Percent Growth Inhibition” value is recorded as 100% and the “Percent Mortality” value is reported as 100%.
For the compound `ClC(Cl)=CCOc1cc(Cl)c(OCCn2cc(-c3ccc(Cl)cc3Cl)nn2)c(Cl)c1` [Compound 1-8], the “Percent Growth Inhibition” value is 33% and the “Percent Mortality” value is reported as 0%.
Consider `FC(F)(F)c1ccc(-c2nnn(CCOc3c(Cl)cc(OCC=C(Cl)Cl)cc3Cl)n2)cc1` [Compound 7-2], for which the “Percent Growth Inhibition” value was found to be 100% and the “Percent Mortality” value is reported as 100%.
`ClC(Cl)=CCOc1cc(Cl)c(OCCn2cc(Cc3ccccc3)nn2)c(Cl)c1` [Compound 1-4]: the “Percent Growth Inhibition” value stood at 100% and the “Percent Mortality” value is reported as 100%.
For the compound `ClC(Cl)=CCOc1cc(Cl)c(OCCn2nnc(-c3ccccc3Cl)n2)c(Cl)c1` [Compound 7-55], the “Percent Growth Inhibition” value turned out to be 100% and the “Percent Mortality” value was determined as 100%.
